Biological target: T1, human β2 adrenergic receptor (Homo sapiens, UniProt P07550)
T1 construct: expressed in transfected cells; membranes prepared from the cells
Test: Radioligand binding assay on human β1 and β2 adrenergic receptors ([3H]dihydroalprenolol displacement)
Details: binding at β2 versus β1 adrenergic receptor; HEK-293 membranes
Method: HEK-293 derived cell lines stably expressing cloned human β1 or β2 adrenergic receptors, respectively, were grown to near confluency in DMEM with 10% dialyzed FBS in the presence of 500 μg/mL Geneticin. The cell monolayer was lifted with Versene 1:5,000 (0.2 g/L EDTA in PBS) using a cell scraper. Cells were pelleted by centrifugation at 1,000 rpm, and cell pellets were either stored frozen at −80° C. or membranes were prepared immediately. […] Protein concentration of the membrane suspension was determined by the method of Bradford (Bradford M M., Analytical Biochemistry, 1976, 72, 248-54). […]
Binding assays were performed in 96-well microtiter plates in a total assay volume of 100 μL with 5 μg membrane protein for membranes containing the human β2 adrenergic receptor, or 2.5 μg membrane protein for membranes containing the human 01 adrenergic receptor in assay buffer (75 mM Tris/HCl pH 7.4 @ 25° C., 12.5 mM MgCl2, 1 mM EDTA, 0.2% BSA). […] Non-specific binding was determined in the presence of 10 μM unlabeled alprenolol. […] Filter plates were washed three times with filtration buffer (75 mM Tris/HCl pH 7.4 @4° C., 12.5 mM MgCl2, 1 mM EDTA) to remove unbound radioactivity. […] Binding data were analyzed by nonlinear regression analysis with the GraphPad Prism Software package (GraphPad Software, Inc., San Diego, Calif.) using the 3-parameter model for one-site competition. […]

T1 sequence (P07550 whole entry): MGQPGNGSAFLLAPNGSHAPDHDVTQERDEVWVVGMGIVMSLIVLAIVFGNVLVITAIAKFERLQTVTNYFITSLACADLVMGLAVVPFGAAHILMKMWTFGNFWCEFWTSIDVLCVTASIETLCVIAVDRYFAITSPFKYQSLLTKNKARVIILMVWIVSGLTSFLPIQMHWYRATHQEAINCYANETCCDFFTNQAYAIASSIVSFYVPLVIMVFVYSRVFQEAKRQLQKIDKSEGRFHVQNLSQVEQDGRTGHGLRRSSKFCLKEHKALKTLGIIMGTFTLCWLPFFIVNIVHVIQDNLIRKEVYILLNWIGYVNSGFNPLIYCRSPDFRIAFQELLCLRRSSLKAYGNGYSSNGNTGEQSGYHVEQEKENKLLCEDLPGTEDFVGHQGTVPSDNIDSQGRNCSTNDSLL

COc1ccc(Oc2ccc(CCNC[C@H](O)c3ccc(O)c4[nH]c(=O)ccc34)cc2)cc1-c1ccccc1 [Example 1, 8-Hydroxy-5-((R)-1-hydroxy-2-{2-[4-(6-methoxybiphenyl-3-yloxy)phenyl]ethylamino}ethyl)-1H-quinolin-2-one]
receptor subtype selectivity, ratio Ki(β1)/Ki(β2): about 18
